Assay results reported in ChEMBL document CHEMBL3232860, “Evaluation of structural effects on 5-HT(2A) receptor antagonism by aporphines: identification of a new aporphine with 5-HT(2A) antagonist activity” (Bioorg Med Chem Lett, 2014).

Experiments:
[1] = target: 5-hydroxytryptamine receptor 2A (Homo sapiens) (UniProt P28223); assay: Antagonist activity at human 5-HT2A receptor assessed as inhibition of 5-HT-induced mobilization of internal calcium at 10 uM by FLIPR assay; assay type: functional
[2] = target: T1, Alpha-1A adrenergic receptor (Homo sapiens) (UniProt P35348); assay: Antagonist activity at alpha1A adrenergic receptor (unknown origin) assessed as inhibition of mobilization of internal calcium at 10 uM by FLIPR assay; assay type: functional
T1 sequence (whole entry): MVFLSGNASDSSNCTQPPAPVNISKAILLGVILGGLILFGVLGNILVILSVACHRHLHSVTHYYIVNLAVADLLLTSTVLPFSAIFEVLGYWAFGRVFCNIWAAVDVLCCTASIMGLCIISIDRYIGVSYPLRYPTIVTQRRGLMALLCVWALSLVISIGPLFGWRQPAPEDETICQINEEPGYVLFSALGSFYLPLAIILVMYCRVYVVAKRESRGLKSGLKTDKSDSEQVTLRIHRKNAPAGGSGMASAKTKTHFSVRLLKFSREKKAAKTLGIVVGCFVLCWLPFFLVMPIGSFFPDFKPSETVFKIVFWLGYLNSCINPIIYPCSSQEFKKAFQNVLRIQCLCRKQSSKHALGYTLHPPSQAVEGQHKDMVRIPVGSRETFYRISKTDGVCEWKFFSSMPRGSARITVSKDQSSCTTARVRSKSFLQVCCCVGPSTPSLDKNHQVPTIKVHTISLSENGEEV

[3] = species on record: Homo sapiens; assay: Selectivity ratio of Ke for human 5-HT2A receptor to Ke for alpha1A adrenergic receptor (unknown origin)

Sequence of 5-hydroxytryptamine receptor 2A (Homo sapiens) (P28223 whole entry): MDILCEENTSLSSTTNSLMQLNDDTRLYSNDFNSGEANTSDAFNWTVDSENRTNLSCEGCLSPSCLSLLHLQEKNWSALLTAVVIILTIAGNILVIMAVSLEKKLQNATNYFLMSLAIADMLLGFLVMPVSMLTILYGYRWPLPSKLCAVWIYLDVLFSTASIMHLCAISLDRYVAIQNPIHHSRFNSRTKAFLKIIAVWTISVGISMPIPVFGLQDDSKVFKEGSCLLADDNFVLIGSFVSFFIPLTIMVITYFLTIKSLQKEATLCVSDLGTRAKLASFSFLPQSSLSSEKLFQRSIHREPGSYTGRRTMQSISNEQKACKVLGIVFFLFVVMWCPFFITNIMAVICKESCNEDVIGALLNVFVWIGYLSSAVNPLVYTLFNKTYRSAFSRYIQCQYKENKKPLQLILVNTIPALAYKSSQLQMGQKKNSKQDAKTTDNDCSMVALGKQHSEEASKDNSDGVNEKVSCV

Q: What does the source list for COc1cc2c3c(c1OC)-c1cc4c(cc1CC3OCC2)OCO4 (stereo unspecified)?
A: Ke [1]: > 3000 nM; Ke [2]: > 3000 nM

Q: How did the Ke [1] turn out when COc1cc2c3c(c1OC)-c1cc4c(cc1C[C@@H]3N(C)CC2)OCO4 was run?
A: Its Ke is 657 nM.

Q: What about the Ke [2] of the same compound?
A: Its Ke is 196 nM.

Q: And the Ratio Ke [3]?
A: Its Ratio Ke is 3.4.

Q: C=CCc1cc2c3c(c1OCC1CC1)-c1cc4c(cc1CC3N(C)CC2)OCO4 (stereo unspecified) was tested. Which Ke [1] did it give?
A: Its Ke is 963 nM.

Q: What about the Ke [2] of the same compound?
A: The Ke was greater than 3000 nM.

Q: And the Ratio Ke [3]?
A: Its Ratio Ke is less than 0.32.

Q: Which results are given for C=CCOc1c(OC)cc2c3c1-c1cc4c(cc1CC3OCC2)OCO4 (stereo unspecified)?
A: Ke [1]: > 3000 nM; Ke [2]: > 3000 nM

Q: What does the source list for C=CCOc1c(CC=C)cc2c3c1-c1cc4c(cc1CC3N(C)CC2)OCO4 (stereo unspecified)?
A: Ke [1]: 1370 nM; Ke [2]: > 3000 nM; Ratio Ke [3]: < 0.45

Q: What does the source list for COc1cc2c3c(c1OC)-c1cc4c(cc1C[C@H]3N(C)CC2)OCO4?
A: Ke [1]: 946 nM; Ke [2]: 70 nM; Ratio Ke [3]: 13.5

Q: With CN1CCc2ccc(O)c3c2C1Cc1cc2c(cc1-3)OCO2 (stereo unspecified) as the compound, how does the Ke [1] read?
A: The Ke was greater than 3000 nM.

Q: What about the Ke [2] of the same compound?
A: Its Ke is 2950 nM.

Q: With C=CCc1cc2c3c(c1OC)-c1cc4c(cc1CC3N(C)CC2)OCO4 (stereo unspecified) as the compound, how does the Ke [1] read?
A: The Ke was 485 nM.

Q: And the Ke [2]?
A: Its Ke is 566 nM.

Q: And the Ratio Ke [3]?
A: The Ratio Ke was 0.85.

Q: C=CCc1cc2c3c(c1O)-c1cc4c(cc1CC3N(C)CC2)OCO4 (stereo unspecified) was tested. Which Ke [1] did it give?
A: Its Ke is greater than 3000 nM.

Q: And the Ke [2]?
A: Its Ke is greater than 3000 nM.

Q: With C=CCOc1ccc2c3c1-c1cc4c(cc1CC3N(C)CC2)OCO4 (stereo unspecified) as the compound, how does the Ke [1] read?
A: Its Ke is 47 nM.

Q: And the Ke [2]?
A: Its Ke is 744 nM.

Q: And the Ratio Ke [3]?
A: Its Ratio Ke is 0.06.
